From PubChem BioAssay (NCI)
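All cell lines were grown in 96-well plates and treated with compound for 48 hours. At the GI50, growth is halved. TGI marks complete inhibition of growth.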

Assays:
Experiment in all cases: growth of human tumour cells (NCI), 48 h
SNB-19 CNS = tested on: SNB-19 CNS
HCT-116 colon = tested on: HCT-116 colon
LOX IMVI melanoma = tested on: LOX IMVI melanoma
SK-MEL-5 melanoma = tested on: SK-MEL-5 melanoma
HOP-62 NSCLC = tested on: HOP-62 NSCLC
SK-OV-3 ovarian = tested on: SK-OV-3 ovarian
OVCAR-4 ovarian = tested on: OVCAR-4 ovarian
T-47D breast = tested on: T-47D breast
TK-10 renal = tested on: TK-10 renal
BT-549 breast = tested on: BT-549 breast

| Compound | TGI (SNB-19 CNS) [µM] | TGI (HCT-116 colon) [µM] | TGI (LOX IMVI melanoma) [µM] | TGI (SK-MEL-5 melanoma) [µM] | TGI (HOP-62 NSCLC) [µM] | TGI (SK-OV-3 ovarian) [µM] | TGI (OVCAR-4 ovarian) [µM] | TGI (T-47D breast) [µM] | TGI (TK-10 renal) [µM] | TGI (BT-549 breast) [µM] | GI50 (SNB-19 CNS) [µM] | GI50 (SK-MEL-5 melanoma) [µM] | GI50 (HOP-62 NSCLC) [µM] | GI50 (OVCAR-4 ovarian) [µM] | GI50 (BT-549 breast) [µM] | GI50 (SK-OV-3 ovarian) [µM] | GI50 (TK-10 renal) [µM] |
| --- | --- | --- | --- | --- | --- | --- | --- | --- | --- | --- | --- | --- | --- | --- | --- | --- | --- |
| O=c1[nH]nc(Cc2ccc(Cl)cc2)n1O | > 100 | > 100 | > 100 | > 100 | > 100 | > 100 | > 100 | > 100 | > 100 |  |  |  |  |  |  |  |  |
| NC(=O)CC(Nc1ncc2c(n1)-c1ccccc1OC2)C(=O)O (stereo not drawn) | > 100 | > 100 | > 100 | > 100 | > 100 | > 100 | > 100 |  | > 100 |  |  |  |  |  |  |  |  |
| O=C(NCCNCCO)N/N=C/c1ccc(Cl)cc1 | > 100 | > 100 |  | > 100 | > 100 | > 100 |  | > 100 | > 100 | > 100 |  |  |  |  |  |  |  |
| COc1c/c(=C2/C=c3ccccc3=N2)[nH]/c1=C/c1[nH]c(C)cc1C | > 100 |  |  | 0.0835 | 0.459 |  | > 100 |  |  |  | 0.598 | 0.0304 | 0.0458 | 0.106 |  |  |  |
| CC[N+](CC)=c1ccc2nc3c(cc(N)c4ccccc43)oc-2c1 | 1.04 |  |  | 0.27 |  | 2.7 |  |  | 1.14 | 2.41 | 0.318 | 0.125 |  |  | 1.11 | 1.37 | 0.489 |
